Results as given in publication PMC10313368 (The Journal of Clinical Investigation, 2023).
“And” between values parts separate entries of the source, which are not always exact repeats. Identical values can stand only once.

Experiments:
HIF-1α = HIF-1α (Homo sapiens, UniProt Q16665); experiment: Immunoblot of HIF-1α accumulation in D120 hiPSC-derived retinal organoids in 1% O2; type: cell-based; parameters: endogenous in cells; settings: 1% O2 12 hours, 32-134D
Method: An hiPSC line derived from CD34^+ cord blood was used in this study (A18945, Thermo Fisher Scientific) ([70]). Undifferentiated hiPSCs and derived retinal organoids were routinely tested for mycoplasma contamination by PCR. Cell culture, retinal differentiation, and organoid formation were conducted as previously described ([71]). Retinal organoids at D120 were used for experiments.
Immunoblot assays. Cells, neurosensory retina, and D120 retinal organoid lysates were subjected
to 4–15% gradient SDS/PAGE (Invitrogen). Immunoblot (Western blot or WB) assays were
performed as previously described (1). […]

MIO-M1 cells = experiment: qPCR of VEGF and ANGPTL4 mRNA in hypoxic MIO-M1 cells; type: cell-based, human; settings: for Angptl4 mRNA / Vegfa mRNA: MIO-M1, 1%O2+32-134D 10μM, 20%O2 about 1, replicates, Figure 7H
Method: MIO-M1, HUVECs, and ARPE19 cells were cultured in DMEM with 10% (vol/vol) FBS (Quality Biological) and 1% penicillin/streptomycin (Cellgro). A hypoxic chamber (Coy Laboratory Product Inc.; Two Glove Model) with 5% CO2, 94% N2, and 1% O2 gas concentration at 37°C was used to culture hypoxic cells. The control cells were cultured in an incubator maintained at 37°C, with 21% O2 and 5% CO2. […] Aflibercept was obtained from the Johns Hopkins University Pharmacy. […]
(§1) Reverse transcription and quantitative real-time PCR. Total RNA was isolated from cultured cells or retinas with PureLinkTM RNA Mini Kit (Invitrogen #12183025), and cDNA was prepared with MuLV Reverse Transcriptase (Applied Biosystems). Quantitative real-time PCR was performed with Power SYBR Green PCR Master Mix (Applied Biosystems) and MyiQ Real-Time PCR Detection System (Bio-Rad). Normalization was done using cyclophilin A for mouse tissue and human cell lines. Primers are listed in Supplemental Table 2. […]

BL/6 mice = experiment: Fundus photos and fluorescein angiography after systemic (i.p.) administration; type: in vivo, mouse; settings: adult mice, 1 month following 5 consecutive i.p. injections of 40 or 80 mg/kg
Method: protocol, the sections were rinsed three times with PBS for 2 minutes. Images were captured at high magnification (20X) with Zeiss fluorescent microscope.
Flash scotopic ERGs. All procedures were performed under dim red light. Mice were dark adapted overnight, anesthetized with ketamine (50 mg/kg) and xylazine (5mg/kg) and pupils were dilated with a topical drop of tropicamide (1%). Scotopic ERG responses were measured using the Celeris ERG stimulator (Diagnosys, Lowell, MA) at flash intensities of 0.025, 0.25, 2.5, 7.96, and 79.06 cd/s/m2. ERGs were measured simultaneously from both eyes with a ground electrode placed into the forehead between the eyes and a reference electrode into the hip.
Fluorescein angiography in mice. […]
vascular permeability, experimental animals were treated with 5 consecutive daily IP injections […]
On day 30, mice were anesthetized using intramuscular injection with ketamine (50 mg/kg) and xylazine (5mg/kg). […] Fluorescein leakage manifests as indistinct vascular borders progressing to diffusely hazy fluorescence. Fluorescein leakage was compared between different groups by quantifying the fluorescence intensities collected after 1-, 2-, and 3-minutes following fluorescein injection using the ImageJ software.

[1] = tested on: HIF-regulated vasoactive mediators; experiment: mRNA expression of HIF-regulated vasoactive mediators in retina of STZ-induced diabetic mice (qPCR); type: in vivo, mouse; settings: STZ mice, replicates; for Angptl4 mRNA / Vegfa mRNA: S Figure 3B; for Angpt2 mRNA / Ptprb mRNA: S Figure 3C
Method: as §1
STZ-induced diabetes mouse model. 8-to-10 week-old male mice received an IP injection of STZ at 40 mg/kg of body weight in 0.1M of citrate buffer (pH 4.5) for 5 consecutive days. Normal chow and 10% sucrose water were provided during this period. 10% sucrose was discontinued and replaced with regular water on experimental day 6. Blood glucose was measured on experimental day 28 after 16 hours fasting and mice with blood glucose level > 250 mg/dL were considered […]
(§2) Intraperitoneal (IP) injections. […]

[2] = tested on: HIF-regulated angiogenic mediators; experiment: mRNA expression of HIF-regulated vasoactive mediators in OIR mouse retina (qPCR); type: in vivo
Method: as §1
Animal studies. Eight-week-old pathogen-free female C57BL/6 mice were obtained from The Jackson Laboratory (JAX). Timed pregnant C57BL/6 mice were obtained from Charles River Laboratories. Mice heterozygous for HIF-1α have been previously described (2). Mice heterozygous for HIF-2α (strain number: 003266; common name: EPAS1 KO) were purchased […]
OIR mouse model. OIR experiments were performed as previously described (1, 3). Briefly, C57BL/6 mice were placed in 75% O2 on P7. On P12, the mice were returned to room air and were […]
(or vehicle) by intravitreal injection. Mice with body weight less than 6 g at P17 were excluded […]
from analysis. Data were collected from both males and females and the results were combined since there was no apparent difference between sexes. Representative images for selected time points from a minimum of three independent experiments are shown. Data from 3-8 pups were obtained at each time point. […]
as §2
intraperitoneally using an insulin syringe in OIR pups. […]
the peritoneal cavity of neonatal C57BL/6 mice and STZ mice at indicated times, and the retinal vasculature and lysates for WB and qPCR were assessed at P17.
Intraocular injections. Intravitreal injections were performed with a PLI-100A Pico-liter Microinjector (Warner Instruments, Harvard Bioscience) using pulled-glass micropipettes. Each micropipette was calibrated to deliver a 1 μl volume on depression of a foot switch. The mice were anesthetized with a ketamine (100 mg/kg) and xylazine (5mg/kg) mixture, and under a dissecting microscope, the sharpened tip of the micropipette was passed through the sclera just posterior to the limbus into the vitreous cavity and the foot switch was depressed, which caused fluid to […]

[3] = OIR+32-134D i.p. 20mg/kg, Figure 10C, replicates, 20 mg/kg
[4] = OIR+32-134D i.p. 20mg/kg, Figure 10D, replicates, 20 mg/kg
[5] = S Figure 4B, OIR mice, 14ng I.V., replicates
[6] = S Figure 4B, OIR mice, 70ng I.V., replicates

Sequence of HIF-1α (Q16665 whole entry): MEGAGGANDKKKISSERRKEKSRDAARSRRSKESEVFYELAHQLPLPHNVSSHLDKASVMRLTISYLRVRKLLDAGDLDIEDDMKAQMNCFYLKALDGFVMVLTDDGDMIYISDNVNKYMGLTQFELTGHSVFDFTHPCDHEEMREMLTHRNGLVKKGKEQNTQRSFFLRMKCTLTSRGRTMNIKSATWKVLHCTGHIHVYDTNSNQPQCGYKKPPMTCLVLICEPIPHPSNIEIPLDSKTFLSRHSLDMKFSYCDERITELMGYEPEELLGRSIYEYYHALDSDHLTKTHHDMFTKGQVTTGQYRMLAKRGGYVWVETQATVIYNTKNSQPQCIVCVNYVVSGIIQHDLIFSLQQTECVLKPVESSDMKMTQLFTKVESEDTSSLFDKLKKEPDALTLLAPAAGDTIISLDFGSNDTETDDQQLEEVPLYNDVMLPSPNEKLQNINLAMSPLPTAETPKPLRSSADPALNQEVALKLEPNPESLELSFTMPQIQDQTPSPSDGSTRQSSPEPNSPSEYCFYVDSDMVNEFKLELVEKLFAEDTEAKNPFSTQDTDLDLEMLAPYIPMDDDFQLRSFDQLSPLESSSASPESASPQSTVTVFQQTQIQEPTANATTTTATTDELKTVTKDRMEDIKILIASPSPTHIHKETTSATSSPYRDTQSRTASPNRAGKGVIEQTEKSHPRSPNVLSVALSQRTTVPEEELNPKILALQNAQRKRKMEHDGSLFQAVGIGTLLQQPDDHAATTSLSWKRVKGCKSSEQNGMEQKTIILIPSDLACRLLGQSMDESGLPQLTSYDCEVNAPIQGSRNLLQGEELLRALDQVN

**Q.** `Brc1ccc2c(-c3csc(-c4c[nH]c5c(Br)cccc45)n3)c[nH]c2c1` [32-134D, 4-(6-bromo-1H-indol-3-yl)-2-(7-bromo-1H-indol-3-yl)thiazole] was tested. Which “accumulation of HIF-1α protein” value (HIF-1α) did it give?
**A.** effectively prevented accumulation

**Q.** And the logIC50 (MIO-M1 cells; Figure 12B, [Inhibitor] vs. response (three parameters), best-fit value)?
**A.** 0.5455

**Q.** What about the “Angptl4 mRNA” value (MIO-M1 cells; 2hrs) of the same compound?
**A.** 0.3563 and 0.4262 and 0.3782

**Q.** What about the “Vegfa mRNA” value (MIO-M1 cells; 2hrs) of the same compound?
**A.** 1.026 and 1.073 and 1.079

**Q.** And the “Angptl4 mRNA” value (MIO-M1 cells; 4hrs)?
**A.** 1.791 and 1.687 and 2.018

**Q.** What about the “Vegfa mRNA” value (MIO-M1 cells; 4hrs) of the same compound?
**A.** 1.517 and 1.493 and 1.343

**Q.** What about the “Angptl4 mRNA” value (MIO-M1 cells; 8hrs) of the same compound?
**A.** 1.385 and 1.132 and 0.993

**Q.** What about the “Vegfa mRNA” value (MIO-M1 cells; 8hrs) of the same compound?
**A.** 2.421 and 2.295 and 2.311

**Q.** What about the “fundus and fluorescein angiogram” value (BL/6 mice) of the same compound?
**A.** normal-appearing fundus without evidence of retinal vascular injury or leakage

**Q.** What about the “Angptl4 mRNA” value ([1]; 40mg/kg i.p., 40 mg/kg) of the same compound?
**A.** 0.6634 and 0.674 and 0.6653

**Q.** What about the “Vegfa mRNA” value ([1]; 40mg/kg i.p., 40 mg/kg) of the same compound?
**A.** 1.885 and 1.498 and 1.761

**Q.** What about the “Angptl4 mRNA” value ([1]; 80mg/kg i.p., 80 mg/kg) of the same compound?
**A.** 0.5186 and 0.5762 and 0.6276

**Q.** And the “Vegfa mRNA” value ([1]; 80mg/kg i.p., 80 mg/kg)?
**A.** 1.453 and 1.442 and 1.52

**Q.** And the “Angpt2 mRNA” value ([1]; 40mg/kg i.p., 40 mg/kg)?
**A.** 0.559 and 0.5248 and 0.5704

**Q.** What about the “Ptprb mRNA” value ([1]; 40mg/kg i.p., 40 mg/kg) of the same compound?
**A.** 0.7022 and 0.6022 and 0.6973

**Q.** And the “Angpt2 mRNA” value ([1]; 80mg/kg i.p., 80 mg/kg)?
**A.** 0.5647 and 0.5575 and 0.5047

**Q.** What about the “Ptprb mRNA” value ([1]; 80mg/kg i.p., 80 mg/kg) of the same compound?
**A.** 0.8502 and 0.8904 and 0.75

**Q.** What about the “mRNA expression of key HIF-regulated vasoactive mediators in OIR mice (in words)” value ([2]; 5 consecutive (P12–P16) i.p. injections 20 mg/kg 32-134D) of the same compound?
**A.** marked reduction

**Q.** And the “Vegfa mRNA” value ([2]; Figure 14B, OIR mice, 14ng I.V., individual replicates)?
**A.** 2.554 and 2.472 and 2.429

**Q.** And the “Vegfa mRNA” value ([2]; Figure 14B, OIR mice, 70ng I.V., individual replicates)?
**A.** 1.453 and 1.941 and 2.696

**Q.** What about the “other key HIF-regulated angiogenic genes including Kdr, Angptl4, Epo, Serpine1 (in words)” value ([2]; OIR mice P17, single intraocular 32-134D (70 ng, Supplemental Figure 4) at P12) of the same compound?
**A.** moderate reduction

**Q.** And the “Angptl4 mRNA” value [2, 3]?
**A.** 1.959 and 1.886 and 1.828

**Q.** And the “Epo mRNA” value [2, 3]?
**A.** 15.9268 and 13.6786 and 15.0565

**Q.** And the “Pdgfb mRNA” value [2, 3]?
**A.** 7.756 and 6.2199 and 6.871

**Q.** What about the “Vegfa mRNA” value [2, 3] of the same compound?
**A.** 4.717 and 4.578 and 4.299

**Q.** What about the “Angpt2 mRNA” value [2, 4] of the same compound?
**A.** 1.455 and 1.394 and 1.541

**Q.** What about the “Kdr mRNA” value [2, 4] of the same compound?
**A.** 1.28 and 1.296 and 1.315

**Q.** And the “Ptprb mRNA” value [2, 4]?
**A.** 1.109 and 1.093 and 1.12

**Q.** And the “Serpine1 mRNA” value [2, 4]?
**A.** 18.6807 and 17.1616 and 18.3924

**Q.** And the “Angptl4 mRNA” value [2, 5]?
**A.** 1.665 and 1.591 and 1.559

**Q.** And the “Epo mRNA” value [2, 5]?
**A.** 8.623 and 9.0589 and 6.546

**Q.** What about the “Kdr mRNA” value [2, 5] of the same compound?
**A.** 1.18 and 1.183 and 1.04

**Q.** What about the “Serpine1 mRNA” value [2, 5] of the same compound?
**A.** 4.654 and 4.995 and 4.51

**Q.** And the “Angptl4 mRNA” value [2, 6]?
**A.** 1.678 and 1.5898 and 1.693

**Q.** And the “Epo mRNA” value [2, 6]?
**A.** 5.752 and 6.783 and 6.508

**Q.** And the “Kdr mRNA” value [2, 6]?
**A.** 1.345 and 1.2643 and 1.301

**Q.** What about the “Serpine1 mRNA” value [2, 6] of the same compound?
**A.** 6.417 and 6.411 and 5.108

**Q.** What about the “Vegfa mRNA expression in OIR mice (in words)” value ([2]; single intraocular injection 32-134D 14 ng at P12) of the same compound?
**A.** moderate reduction
